Measurements from patent publication US9726669B2, “Biomarkers for determining sensitivity of breast cancer cells to HER2-targeted therapy” (PIERIAN HOLDINGS, INC., priority 2009, dated 2017).

Experiments:
[1] = test system: ER-positive breast cancer; conditions: cited from earlier work
VEGF = conditions: with chemotherapy; patients with colorectal, breast, and lung cancers; cited from earlier work
T47D cells = test: COPIA RTK activation in growth factor stimulated T47D cells; type: cell-based, human; conditions: T47D cells stimulated with EGF or HRG
Method: (§1) SKBr3, MDA-MB-468, T47D and BT474 cell lines were obtained from ATCC. Cells were grown in the following growth media in 100 mm tissue culture plates at 37° C. in 5% CO2: SKBr3 McCoy's 5A medium with 10% FBS, MDA-MB-468: DMEM, 10% FBS, BT474: DMEM, 10B FBS, T47D: RPMI 1640, 10% FBS, 0.2 U/ml bovine insulin. Cells were harvested at 70-80% confluency with gentle detachment process (trypsin treatment+subsequent inactivation) and were subsequently counted and washed with 1×PBS. Cell stimulation was performed with 100 uM EGF or 20 uM heregulin β or both in serum-free growth media for 5 min. Stimulated cells were washed with 1×PBS and then were lysed (lysis buffer: 50 mM Tris, pH 7.4, 150 mM NaCl, 1% Trition X-100 and 200 mM Na3VO4) and kept on ice for 30 min.
(§2) Slides were first rinsed two times with TBST (50 mM Tris/150 mM NaCl/0.1% Tween-20, pH 7.2-7.4) before blocking them with 80 ul of Whatman Blocking Buffer 1 hr at RT or O/N at 4 C. After the blocking process, slides were washed 2 times with TBST. […]

MDA MB 468 cells = test: COPIA per-cell RTK activation in growth factor stimulated MDA-MB-468 cells; type: cell-based, human; conditions: MDA MB 468 cells stimulated with EGF
Method: as §1, §2

Sequence of VEGF (P15692 207-311 limits assumed): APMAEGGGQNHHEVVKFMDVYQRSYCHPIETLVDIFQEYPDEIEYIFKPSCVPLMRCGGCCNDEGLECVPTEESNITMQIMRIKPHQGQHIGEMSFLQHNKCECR

CC/C(=C(\c1ccccc1)c1ccc(OCCN(C)C)cc1)c1ccccc1 [Tamoxifen]
reduction in the odds of recurrence and mortality ([1]; adjuvant therapy studies): 40% to 50% | patients with temporary remission ([1]; patients with metastatic disease): 30% to 50%

Bevacizumab
survival (VEGF): improve survival

EGF: epidermal growth factor, stimulatory growth factor used to induce HER1 phosphorylation (NSDSECPLSHDGYCLHDGVCMYIEALDKYACNCVVGYIGERCQYRDLKWWELR; Epidermal growth factor; UniProt P01133 971-1023, looked up)
HER1 activation (T47D cells): resulted in both HER1 and HER2 activation | HER2 activation (T47D cells): resulted in both HER1 and HER2 activation | level of pHER1 per cell (MDA MB 468 cells): 992.5 RFU/cell
